Results published in patent US20250290117A1, “MOLECULAR PHENOTYPIC ANTIMICROBIAL SUSCEPTIBILITY TESTING” (priority 2024, published 2025).

Key:
pathogen of the specimen = assay: Molecular phenotypic antimicrobial susceptibility test with direct PCR at various incubation timepoints (Table 7); assay type: cell-based
Outline: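 This molecular phenotypic susceptibility test gauges whether antimicrobials prevent (sensitive) or allow (resistant) pathogen growth. The cultured specimen is adjusted to 0.5 McFarland and plated against antimicrobial solutions at breakpoint concentrations alongside drug-free controls. Following incubation, cells are lysed without extraction and amplified by semi-quantitative PCR; Ct values are compared against the control wells to assign results.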

E. coli = assay: Molecular phenotypic antimicrobial susceptibility test, specimen with two detected pathogens incubated together without isolation; assay type: cell-based, Escherichia coli; conditions: E. coli in specimen with two detected pathogens (E. coli and M. morganii) incubated together
Outline: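 Susceptibility read molecularly: growth means resistance, prevented growth sensitivity, versus antibiotic-free control wells. Co-detected pathogens stay together without isolation; after 4-6 h preincubation and PCR identification (threshold >10,000 cells/mL), inoculum adjusted to 0.5 McFarland and placed on thawed plates with each drug at its breakpoint concentration(s).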

What does the source list for Trimethoprim/Sulfamethoxazole [TMP/SMX]?
Molecular Antimicrobial Susceptibility Result (pathogen of the specimen; E. coli isolate 1189, antibiotic incubation time 4 hours): Sensitive (Antimicrobial wells with pathogen load detected below the control wells (typically >2 cycle thresholds later) may be reported as Sensitive); Ct at Sensitive Breakpoint (pathogen of the specimen; E. coli isolate 1189, antibiotic incubation time 4 hours, control average Ct […]): 24.603; Molecular Antimicrobial Susceptibility Result (pathogen of the specimen; E. coli isolate 1189, antibiotic incubation time 6 hours): Sensitive (Antimicrobial wells with pathogen load detected below the control wells (typically >2 cycle thresholds later) may be reported as Sensitive); Ct at Sensitive Breakpoint (pathogen of the specimen; E. coli isolate 1189, antibiotic incubation time 6 hours, control average Ct 16.992): 23.984; Molecular Antimicrobial Susceptibility Result (pathogen of the specimen; E. coli isolate 1189, antibiotic incubation time 8 hours): Sensitive (Antimicrobial wells with pathogen load detected below the control wells (typically >2 cycle thresholds later) may be reported as Sensitive); Ct at Sensitive Breakpoint (pathogen of the specimen; E. coli isolate 1189, antibiotic incubation time 8 hours, control average Ct […]): 24.482; Molecular Antimicrobial Susceptibility Result (pathogen of the specimen; E. coli isolate 1189, antibiotic incubation time 10 hours): Sensitive (Antimicrobial wells with pathogen load detected below the control wells (typically >2 cycle thresholds later) may be reported as Sensitive); Ct at Sensitive Breakpoint (pathogen of the specimen; E. coli isolate 1189, antibiotic incubation time 10 hours, control average Ct 15.995): 24.129; Molecular Antimicrobial Susceptibility Result (pathogen of the specimen; E. coli isolate 1189, antibiotic incubation time 12 hours): Sensitive (Antimicrobial wells with pathogen load detected below the control wells (typically >2 cycle thresholds later) may be reported as Sensitive); Ct at Sensitive Breakpoint (pathogen of the specimen; E. coli isolate 1189, antibiotic incubation time 12 hours, control average Ct 15.495): 23.878; Molecular Antimicrobial Susceptibility Result (pathogen of the specimen; E. coli isolate 1189, antibiotic incubation time 14 hours): Sensitive (Antimicrobial wells with pathogen load detected below the control wells (typically >2 cycle thresholds later) may be reported as Sensitive); Ct at Sensitive Breakpoint (pathogen of the specimen; E. coli isolate 1189, antibiotic incubation time 14 hours, control average Ct 15.826): 24.017; Molecular Antimicrobial Susceptibility Result (pathogen of the specimen; E. coli isolate 1189, antibiotic incubation time 16 hours): Sensitive (Antimicrobial wells with pathogen load detected below the control wells (typically >2 cycle thresholds later) may be reported as Sensitive); Ct at Sensitive Breakpoint (pathogen of the specimen; E. coli isolate 1189, antibiotic incubation time 16 hours, control average Ct 14.880): 23.552; Ct of Sensitive Breakpoint (E. coli; Ct of controls (average) 15.93): 27.67; Molecular Antimicrobial Susceptibility Result (E. coli; at sensitive breakpoint): Sensitive (Antimicrobial wells with pathogen load detected below the control wells (typically >2 cycle thresholds later) may be reported as Sensitive)
